Source: ChEMBL document CHEMBL1154198, “Chemical genetics of Plasmodium falciparum” (Nature, 2010)

Columns and labels:
[1] = tested on: Plasmodium falciparum; test: ST_JUDE: Plasmodium falciparum K1 EC50 (uM) as measured by SYBR green dye; assay type: functional, organism-based
[2] = tested on: Plasmodium falciparum; test: ST_JUDE: Plasmodium falciparum 3D7 EC50 (uM) as measured by SYBR green dye; assay type: functional, organism-based

| Structure (SMILES) | EC50 [1] | EC50 [2] |
| --- | --- | --- |
| CCC(C)c1ccc(O)c(NC(=O)c2cncc(Br)c2)c1 (stereo not given) | 1.59 µM | 2.15 µM |
| COc1ccc2cc3cc(C(=O)Nc4ccccc4N4CCN(C)CC4)sc3nc2c1 | > 15 µM | > 15 µM |
| CC(=O)c1c(C(C)=O)c(C)n(Cc2ccc(Cl)cc2)c1C | 6.63 µM | > 15 µM |
| COC(=O)c1ccc(NC(=O)CN(Cc2ccc(Cl)cc2)S(=O)(=O)c2ccccc2)cc1 | 5.1 µM | 7.32 µM |
| CCN(CC)CCn1c(=N)n(CC(O)COc2ccc(Cl)cc2Cl)c2ccccc21 (stereo not given) | 2.88 µM | 0.954 µM |
| COc1ccc(C(NC(=O)c2cccnc2)c2cc(Cl)c3cccnc3c2O)cc1 (stereo not given) | 1.5 µM | 4.76 µM |
| Cc1cccc(OCC(=O)Nc2cccc(-c3nnc(-c4ccccc4)o3)c2)c1 | > 15 µM | > 15 µM |
| CCN(C(=O)Nc1ccccc1OC)c1nc(-c2ccccc2)cs1 | > 15 µM | > 15 µM |
| COc1ccccc1/C=C/C(=O)Nc1ccc(Cl)c(C(F)(F)F)c1 | > 15 µM | > 15 µM |
| O=C(Nc1cccc(C2=NCCN2)c1)Nc1cccc(C2=NCCN2)c1 | 0.23 µM | 1.89 µM |
| CN1CCN(c2ccc(NC(=O)c3cccc(I)c3)cc2Cl)CC1 | > 15 µM | 7.44 µM |
| Cc1n(CC(O)COc2cccc(Cl)c2)c2ccccc2[n+]1C (stereo not given) | > 15 µM | > 15 µM |
| CCN(CC)c1cc(C)c2cc(NC(=O)c3cccc(F)c3)ccc2n1 | 8.08 µM | 1.99 µM |
| COc1ccc2c(c1)C(=NN=C(N)N)c1cc(OC)ccc1-2 | 1.01 µM | 0.506 µM |
| CCOc1ccc(N2C(N)=NC(N)=NC2(C)C)cc1 | > 15 µM | 0.238 µM |
| Oc1cccc2ccc(/C=C/c3ccccc3Br)nc12 | 9.71 µM | > 15 µM |
| CN1C(=O)C(=Cc2ccc(-c3ccc(O)c(C(=O)O)c3)o2)C(=O)N(C)C1=O | > 15 µM | > 15 µM |
| COc1ccc(C2C(C(=O)Nc3ccc(C)cc3Br)c3ccccc3C(=O)N2C)cc1 (stereo not given) | 3.77 µM | 3.46 µM |
| Cc1ccc(-c2nc(C(=O)N(CCC#N)Cc3cccnc3)cs2)cc1F | 4.68 µM | 3.34 µM |
| O=C1CC(c2ccc(C(F)(F)F)cc2)C2=C(CC(c3ccccc3Cl)CC2=O)N1 (stereo not given) | 0.828 µM | 1.66 µM |
| Cc1ccc(NC(=O)c2csc3c2CCCCC3)c(C)c1 | > 15 µM | 1.77 µM |
| CO/C(O)=C1\C(C)=NC2=C(C(=O)CC(c3ccccc3OC)C2)C1c1ccc(OC)c(OC)c1 (stereo not given) | > 15 µM | > 15 µM |

| Structure (SMILES) | EC50 [1] | EC50 [2] |
| --- | --- | --- |
| CC(C)C(=O)N1CCN(c2ccc([N+](=O)[O-])c(NC3CC3)c2)CC1 | 6.77 µM | 4.46 µM |
| COc1ccc(CN2CCNC(=O)C2CC(=O)NCCOC(C)C)c(OC)c1 (stereo not given) | > 15 µM | > 15 µM |
| OCCNc1nc(Nc2ccc(Cl)c(Cl)c2)nc2ccccc12 | 4.32 µM | > 15 µM |
| C=C(C)CCC(C)N1CCC(N2CCC(C(=O)NCCc3ccccc3)CC2)CC1 (stereo not given) | > 15 µM | 4.26 µM |
| Cc1ccc(C)c(NC(=O)CSc2ccc(Cl)cc2)c1 | > 15 µM | > 15 µM |
| O=C(Nc1nnc(-c2ccc3c(c2)CCCC3)o1)c1ccc(F)cc1 | > 15 µM | > 15 µM |
| CCOC(=O)C1CCN(C(=O)CN(Cc2ccc(Cl)cc2)S(=O)(=O)c2ccc(C)cc2)CC1 | 2.18 µM | > 15 µM |
| Cc1ccc(Nc2cc(C)nc(Nc3ccc(NS(=O)(=O)c4ccc(Cl)cc4)cc3)n2)cc1 | > 15 µM | 0.432 µM |
| CC(C)Cc1cc(C(=O)NCC2Cc3cc(Cl)cc(-c4ccncc4)c3O2)no1 (stereo not given) | 6.45 µM | > 15 µM |
| Cn1c(=O)oc2cc(S(=O)(=O)N3CCCC(C(=O)N4CCN(C(c5ccccc5)c5ccccc5)CC4)C3)ccc21 (stereo not given) | 1.61 µM | 3.56 µM |
| C=CCN1C(=O)c2[nH]nc(-c3c(C)cc(C)cc3O)c2C1c1cccc(OC)c1 (stereo not given) | 1.42 µM | 2.42 µM |
| CN(C)c1ccc(Nc2nc(-c3cccnc3)nc3ccccc23)cc1 | 5.08 µM | > 15 µM |
| COc1ccc(-c2onc(C(F)(F)F)c2Oc2cnn(-c3ccccc3)c2)c(O)c1 | 1.61 µM | 1.81 µM |
| CN(C)c1ccc(/C=C/c2cc(/C=C/c3ccc(N(C)C)cc3)n3n[n+](C)nc3n2)cc1.[O-][Cl+3]([O-])([O-])[O-] | 0.514 µM | 0.641 µM |
| CCC(=O)N1c2ccc(S(=O)(=O)CCC(=O)Nc3ccc(Br)c(C)c3)cc2CC1C (stereo not given) | > 15 µM | > 15 µM |
| COCCCNc1nc2cc(OC)c(OC)cc2c2nc(-c3ccccc3)nn12 | > 15 µM | 0.0855 µM |
| Cc1ccn2c(Nc3ccccc3)c(-c3ccccn3)nc2c1 | > 15 µM | > 15 µM |
| Cn1c(-c2ccccc2)[n+](C)c2ccccc21 | 8.29 µM | 11.7 µM |
| CCCCC(O)(c1ccc(CC)cc1)C(CN1CCOCC1)c1ccccc1 (stereo not given) | 3.44 µM | 3.9 µM |
| O=C(Nc1nc(-c2ccccn2)cs1)c1ccccc1[N+](=O)[O-] | 6.94 µM | 4.99 µM |
| CCOC(=O)C1=C(C)N=c2s/c(=C\c3ccc(O)c(OC)c3)c(=O)n2C1c1ccc(F)cc1 (stereo not given) | 2.26 µM | > 15 µM |
| COc1ccc(C)c2sc(N(Cc3cccnc3)C(=O)c3ccc(C#N)cc3)nc12 | > 15 µM | > 15 µM |

| Structure (SMILES) | EC50 [1] | EC50 [2] |
| --- | --- | --- |
| CC(=O)NC(c1ccc(Cl)cc1)c1ccc2cccnc2c1O (stereo not given) | 2.15 µM | 1.93 µM |
| COc1ccccc1/N=C1\C=C(NS(=O)(=O)c2ccc(Cl)cc2)c2ccccc2C1=O | 0.267 µM | 0.268 µM |
| CCc1c(C)c2cc3c(c(C)c2oc1=O)OCN(CCc1ccc(OC)cc1)C3 | 0.514 µM | > 15 µM |
| CCO/C(O)=C1\C(CC)=NC2=C(C(=O)CC(C)(C)C2)C1c1ccc(Cl)cc1Cl (stereo not given) | 1.22 µM | 1.33 µM |
| CCOC(=O)C1=C(C)N=c2s/c(=C\c3cc(Cl)ccc3O)c(=O)n2C1c1ccc(OC)cc1 (stereo not given) | > 15 µM | > 15 µM |
| CC[n+]1cccc2cc(OC)ccc21 | > 15 µM | > 15 µM |
| COc1ccccc1C(=O)N(Cc1cccnc1)c1nc2c(F)cccc2s1 | 9.07 µM | > 15 µM |
| COc1ccc(Nc2cc(C)nc(Nc3ccc(NS(=O)(=O)c4cccc(Cl)c4)cc3)n2)cc1 | > 15 µM | 2.39 µM |
| Cc1ccc(NC(=O)c2ccc(Br)o2)c(Br)c1 | > 15 µM | > 15 µM |
| Cc1cccc(NC(c2ccccc2C)c2ccc3ccc(C)nc3c2O)n1 (stereo not given) | 5.17 µM | 7.03 µM |
| CCCCCCCOC(=O)c1[nH]c2c(c1C)C(=O)CC(c1ccco1)C2 (stereo not given) | 1.19 µM | 2.01 µM |
| Cc1cccc2nc(Cn3c(=O)n(Cc4ccc5c(c4)OCO5)c(=O)c4ccc(C(=O)NC5CCCCC5)cc43)cc(=O)n12 | > 15 µM | > 15 µM |
| CO/C(O)=C1\C(C)=NC2=C(C(=O)CC(c3ccccc3OC)C2)C1c1cccs1 (stereo not given) | 1.72 µM | 3.91 µM |
| COc1ccc2sc(N(Cc3cccnc3)C(=O)c3ccc(C#N)cc3)nc2c1 | > 15 µM | > 15 µM |
| CCOc1cccc(CN2CCCC(C(=O)c3cccc(C(F)(F)F)c3)C2)c1O (stereo not given) | 1.09 µM | 3.34 µM |
| CCC(C)NC(=O)N1CCC(n2nccc2NC(=O)CCCc2ccccc2)CC1 (stereo not given) | > 15 µM | > 15 µM |
| O=C(Nc1cccc(Br)c1)C1(c2ccccc2)CC1(Cl)Cl (stereo not given) | 3.11 µM | 4.43 µM |
| CCOc1ccc(CCNC(=O)Nc2cc(C(F)(F)F)cc(C(F)(F)F)c2)cc1OC | 5.6 µM | 2.83 µM |
| O=C(Nc1ccccc1-c1nc2ccccc2s1)C(Cl)(Cl)Cl | 2.69 µM | > 15 µM |
| CCOC(=O)C1=C(c2ccc(F)cc2)C(=O)c2ccccc2C1=O | 1.71 µM | 2.28 µM |
| CCc1ccc(C2C(C#N)=C(N)N(c3cccc(Cl)c3)C3=C2C(=O)CCC3)s1 (stereo not given) | > 15 µM | > 15 µM |
| CCOCC(=O)Nc1ccc(S(=O)(=O)N2CCC(c3nc4ccccc4[nH]3)CC2)cc1 | > 15 µM | > 15 µM |

| Structure (SMILES) | EC50 [1] | EC50 [2] |
| --- | --- | --- |
| Cc1cccc(CN2C(=O)/C(=C\c3ccccc3)Sc3ccc(C(=O)NCCN(C)C4CCCCC4)cc32)c1 | 3.75 µM | 1.78 µM |
| CCc1nnc2n1NC(c1ccccc1)C(C(=O)Nc1ccccc1Cl)S2 (stereo not given) | > 15 µM | > 15 µM |
| CCOC(=O)c1cnc2c(C(F)(F)F)cccc2c1Nc1cc(C)ccc1O | 3.09 µM | 2.53 µM |
| CCN1C(=O)c2ccccc2Sc2ccc(NC(=O)NCc3ccccc3Cl)cc21 | > 15 µM | > 15 µM |
| CN(C)c1ccc(C2N(C)c3ccccc3N2C)cc1 | 4.44 µM | 4.27 µM |
| COc1ccc(C(=O)Nc2cccc(-c3nc4ccccc4s3)c2)cc1[N+](=O)[O-] | > 15 µM | > 15 µM |
| CC1(C)N=C(N)N=C(N)N1c1ccc(F)cc1 | 2.31 µM | 0.095 µM |
| O=C(Nc1cc(OCC(F)(F)F)cc(OCC(F)(F)C(F)F)c1)c1cccnc1 | 4.42 µM | 3.84 µM |
| Cc1ccc(CN2CCN(Cc3ccc(OCCO)cc3)CC2CCO)o1 (stereo not given) | > 15 µM | > 15 µM |
| CCc1ccccc1NC(=O)C1c2ccccc2C(=O)N(C2CCCC2)C1c1cccs1 (stereo not given) | 3.38 µM | 1.73 µM |
| O=C(Nc1ccc(F)c(Cl)c1)Nc1ccc(Cl)c(Cl)c1 | 1.63 µM | 5.41 µM |
| CC(C)c1ccc(Nc2c(-c3ccccn3)nc3ccccn23)cc1 | > 15 µM | > 15 µM |
| O=C(Cc1cccc(F)c1)N1CCC(=O)N(CC2CC2)CC1 | > 15 µM | > 15 µM |
| CCOCC(=O)Nc1cc(C(F)(F)F)ccc1Oc1cccc(Br)c1 | > 15 µM | 0.83 µM |
| CCCCCCCCc1c(C)c(C#N)c2nc3ccccc3n2c1-n1cnc2ccccc21 | > 15 µM | > 15 µM |
| CC(=O)Oc1ccccc1C(=O)Nc1cccc(C(F)(F)F)c1 | 2.66 µM | 2.72 µM |
| COc1ccc(C)cc1NC(=S)N1CCN(c2ccc([N+](=O)[O-])cc2)CC1 | 1.92 µM | 1.34 µM |
| COc1ccc(C2(O)C[N+](c3ccc(C)cc3)=C3SCCCN32)c(F)c1 (stereo not given) | > 15 µM | > 15 µM |
| COc1ccc2c(=O)cc(C(Cl)(Cl)Cl)oc2c1 | 1.54 µM | > 15 µM |
